Laboratory results: patent US20080255206A1, “Rxr Agonists and Antagonists, Alone or in Combination with Ppar Ligands, in the Treatment of Metabolic and Cardiovascular Diseases” (priority 2005, published 2008)
pEC50, pIC50: −log10 of the molar value.

Experiments:
RARγ = biological target: T1, RARγ (Homo sapiens, UniProt P13631); assay: Retinoid binding assay, RARγ; details: read-out: Binding Affinity IC50 RAR γ
T1 construct: The DEF domains of RAR's and the full length RXR's, expressed in E.coli; made in house; host or cells: E. coli
T1 sequence (P13631 185-419 limits assumed): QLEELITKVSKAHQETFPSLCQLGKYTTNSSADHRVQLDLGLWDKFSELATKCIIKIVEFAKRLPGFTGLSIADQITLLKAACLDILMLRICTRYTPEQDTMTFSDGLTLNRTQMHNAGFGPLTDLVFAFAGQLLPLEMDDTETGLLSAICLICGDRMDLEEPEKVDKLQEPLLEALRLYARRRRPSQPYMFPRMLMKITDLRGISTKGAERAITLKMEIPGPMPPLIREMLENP
Source text: (§1) The DEF domains of RAR's and the full length RXR's, expressed in E.coli, are used to measure competitive retinoid binding. […] 9-cis retinoic acid (for RXR's), respectively. […] Separation of bound from free radioactivity is achieved by charcoal/dextran (RAR's) or by desalting columns (RXR's). […] Retinoid Activation Assays

RXRγ [1] = biological target: T2, RXRγ (Homo sapiens, UniProt P48443); assay: Retinoid binding assay, RXRγ; parameters: made in house; host or cells: E. coli; details: [3H] 9-cis retinoic acid 20 nM; read-out: Binding Affinity IC50 RXR γ
T2 sequence (P48443 1-463): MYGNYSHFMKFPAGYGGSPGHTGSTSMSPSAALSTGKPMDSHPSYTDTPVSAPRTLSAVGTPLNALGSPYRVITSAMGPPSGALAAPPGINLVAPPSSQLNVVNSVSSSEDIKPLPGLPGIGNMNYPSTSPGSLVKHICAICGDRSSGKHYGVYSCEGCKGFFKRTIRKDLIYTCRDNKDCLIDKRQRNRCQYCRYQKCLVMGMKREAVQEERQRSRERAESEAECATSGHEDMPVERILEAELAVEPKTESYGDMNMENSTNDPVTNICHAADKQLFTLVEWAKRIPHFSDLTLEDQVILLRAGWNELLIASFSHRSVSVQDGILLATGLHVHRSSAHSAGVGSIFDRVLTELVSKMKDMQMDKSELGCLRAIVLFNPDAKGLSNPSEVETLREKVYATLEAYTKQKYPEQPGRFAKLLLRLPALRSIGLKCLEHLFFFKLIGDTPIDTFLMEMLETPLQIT
Source text: as §1

PPARγ/RXRα Heterodimer = biological target: T3, PPARγ/RXRα Heterodimer (Homo sapiens, UniProt P19793); assay: PPARγ/RXRα heterodimer activation (transactivation) assay; format: cell-based
T3 construct: co-transfected with plasmids expressing the full length RXR heteropartner receptor; expressed in transfected cells
T3 sequence (P19793 1-462): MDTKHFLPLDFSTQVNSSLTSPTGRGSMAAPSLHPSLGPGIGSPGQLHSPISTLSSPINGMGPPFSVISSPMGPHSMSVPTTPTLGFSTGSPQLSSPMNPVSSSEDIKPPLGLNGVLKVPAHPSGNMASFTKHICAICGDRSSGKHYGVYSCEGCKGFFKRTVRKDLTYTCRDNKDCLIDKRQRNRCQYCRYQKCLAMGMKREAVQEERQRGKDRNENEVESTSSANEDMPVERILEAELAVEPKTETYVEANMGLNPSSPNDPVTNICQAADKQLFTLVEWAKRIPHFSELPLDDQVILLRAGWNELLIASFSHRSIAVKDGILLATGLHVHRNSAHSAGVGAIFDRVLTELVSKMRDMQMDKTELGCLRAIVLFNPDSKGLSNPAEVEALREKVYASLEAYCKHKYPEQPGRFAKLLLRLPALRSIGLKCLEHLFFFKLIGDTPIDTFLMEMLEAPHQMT
T3 sequence (P37231 1-505 partner): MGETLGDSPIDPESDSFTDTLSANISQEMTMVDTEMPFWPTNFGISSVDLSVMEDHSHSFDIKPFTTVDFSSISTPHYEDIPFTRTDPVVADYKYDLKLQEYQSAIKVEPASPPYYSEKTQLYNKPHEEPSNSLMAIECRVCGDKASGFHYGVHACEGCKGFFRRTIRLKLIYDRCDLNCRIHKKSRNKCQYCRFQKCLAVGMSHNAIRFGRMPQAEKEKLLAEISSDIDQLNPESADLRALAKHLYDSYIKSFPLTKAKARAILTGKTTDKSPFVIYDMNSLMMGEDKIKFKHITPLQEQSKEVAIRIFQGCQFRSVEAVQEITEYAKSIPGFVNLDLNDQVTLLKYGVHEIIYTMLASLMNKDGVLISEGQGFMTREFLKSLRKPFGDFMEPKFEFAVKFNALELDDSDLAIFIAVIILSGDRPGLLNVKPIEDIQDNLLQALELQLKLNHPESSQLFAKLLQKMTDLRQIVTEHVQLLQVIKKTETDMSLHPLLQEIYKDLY
Method in brief: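 Cell-based luciferase transactivation: cells co-transfected with plasmids for full-length PPARγ, full-length RXR heteropartner and a luciferase reporter driven by multiple copies of the natural PPAR response element; ligand-dependent reporter activity measured.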

RXRγ [2] = biological target: T2, RXRγ; assay: Retinoid activation assay, RXRγ (Schneider SL-3 cells, luciferase reporter); format: cell-based; details: read-out: Activation EC50 RXR γ
Method in brief: (§2)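 Drosophila Schneider SL-3 cells transiently transfected (Ca-phosphate, 3-4 h before assay) with full-length RXR cDNA plus luciferase reporter driven by three rat CRBP RXR response elements on an alcohol dehydrogenase promoter. Supernatant luciferase read after incubation; EC50 is concentration giving half-maximal activation.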

RARα = biological target: T4, RARα (Homo sapiens, UniProt P10276); assay: Retinoid binding assay, RARα; parameters: The DEF domains of RAR's and the full length RXR's, expressed in E.coli; made in house; host or cells: E. coli; details: read-out: Binding Affinity IC50 RAR α
T4 sequence (P10276 183-417 limits assumed): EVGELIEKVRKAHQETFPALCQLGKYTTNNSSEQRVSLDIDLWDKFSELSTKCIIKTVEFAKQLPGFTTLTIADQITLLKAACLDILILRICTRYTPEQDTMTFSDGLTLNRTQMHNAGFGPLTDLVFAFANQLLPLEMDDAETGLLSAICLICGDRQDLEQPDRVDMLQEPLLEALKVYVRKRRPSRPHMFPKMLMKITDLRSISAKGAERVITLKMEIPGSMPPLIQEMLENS
Source text: as §1

RXRα = biological target: T5, RXRα (Homo sapiens, UniProt P19793); assay: Retinoid activation assay, RXRα (Schneider SL-3 cells, luciferase reporter); format: cell-based; details: read-out: Activation EC50 RXR α
T5 sequence (P19793 1-462): T3 sequence (P19793 1-462)
Method in brief: as §2

- pIC50 (RARγ): 7.48
- pIC50 (RXRγ [1]): 6.18
- pEC50 (PPARγ/RXRα Heterodimer): 8.46
- pEC50 (RXRγ [2]): ≤ 5.00
- pIC50 (RARα): 7.34
- pEC50 (RXRα): ≤ 5.00
Compound: CCC1(CC)CCC(C)(C)c2cc(\C(C)=C/C=C/C(C)=C/C(=O)O)ccc21 [Compound 24, (2E,4E,6Z)-7-(5,5-Diethyl-8,8-dimethyl-5,6,7,8-tetrahydro-naphthalen-2-yl)-3-methyl-octa-2,4,6-trienoic acid]
